IC50 data for 33 molecules are collected here from US8138168B1 (Takeda Pharmaceutical Company Limited, priority 2007, dated 2012).

Where only a bound is given, the exact number is not on record here.

The test has as its target T1, Recombinant human renin (Homo sapiens, UniProt P00797).
T1 construct: isolate the active form (residues 67-406); made in house; host or cells: FreeStyle 293-F cells (transient expression of pcDNA3.1(+)/hREN)
T1 sequence (P00797 67-406): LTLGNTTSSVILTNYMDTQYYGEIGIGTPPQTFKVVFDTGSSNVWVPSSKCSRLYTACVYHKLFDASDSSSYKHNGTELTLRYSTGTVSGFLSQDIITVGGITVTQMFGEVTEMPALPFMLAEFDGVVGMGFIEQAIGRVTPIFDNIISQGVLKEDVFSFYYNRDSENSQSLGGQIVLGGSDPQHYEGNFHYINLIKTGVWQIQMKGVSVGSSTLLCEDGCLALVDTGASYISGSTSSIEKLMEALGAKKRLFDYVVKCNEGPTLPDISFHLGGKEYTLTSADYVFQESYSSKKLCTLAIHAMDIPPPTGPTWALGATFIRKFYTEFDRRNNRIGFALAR
Put plainly: In vitro enzymatic activity assay of renin inhibitors (fluorogenic peptide substrate). Format: biochemical. Particulars: read-out: IC50 of Exemplified Compounds Against Renin. As for the experimental part: Test compounds in varying concentrations may be reacted with recombinant human renin in the presence of substrate, e.g., QXL520-γ-Abu-[…](HiLyteFluo488)-Arg-OH (Anaspec, San Jose, Calif.). […] Inhibition constants (IC50) may be calculated by non-linear curve fitting of the compound concentrations and fluorescence intensities to the standard IC50 equation.
Solutions of test compounds in varying concentrations mM final concentration) are prepared in dimethyl sulfoxide (DMSO) and then diluted into assay buffer comprising 50 mM Hepes, 1 mM EDTA, 1 mM DTT, 0.1 mg/mL BSA, 0.01% Brij35, pH 7.4. Alternatively, the assay can be performed with a high BSA concentration, wherein the buffer contains an additional 2% BSA.
Recombinant human renin (3 nM final concentration) is added to the dilutions and pre-incubated with the compounds for 10 minutes at 37° C. […] After pre-incubation, the reaction is initiated with of substrate QXL520-γ-Abu-[…](HiLyteFluo488)-Arg-OH (Anaspec, San Jose, Calif.). The final DMSO in the assay is 5%. The total volume of the reaction mixture is 20 μL, which can be placed on Greiner 384-well small volume plates.
The fluorescence intensity is determined upon the addition of substrate and determined again after incubation at 37° C. for one hour. The fluorescence intensity of a blank (no inhibition) using vehicle alone is also determined. Renin activity is linearly proportional to the change in fluorescence observed (final-initial).
Consider `COCCCn1c([C@@H]2CCCN(C(=O)CC(O)Cc3ccc(-c4ccccc4)cc3)C2)nc2ccccc21` (stereo in doubt) [Compound 73, (R)-4-(Biphenyl-4-yl)-3-hydroxy-1-(3-(1-(3-methoxypropyl)-1H-benzo[d]imidazol-2-yl)piperidin-1-yl)butan-1-one], for which the IC50 – broadly, the concentration at which inhibition is half-maximal – lay within 0.1 to 1 µM.
Then `Cc1ccc(NC(=O)N2CCCC(c3nc4ccccc4[nH]3)C2)cc1Cl` (stereo not drawn) [Compound 1, 3-(1H-Benzo[d]imidazol-2-yl)-N-(3-chloro-4-methylphenyl)piperidine-1-carboxamide], with > 1 µM; and `O=C(NCc1ccccc1)N1CCCC(c2nc3ccccc3[nH]2)C1` (stereo not drawn) [Compound 3], with > 1 µM.
The figure for `O=C(Nc1ccc2ccccc2c1)N1CCCC(c2nc3ccccc3[nH]2)C1` (stereo not drawn) [Compound 4, 3-(1H-benzo[d]imidazol-2-yl)-N-(naphthalen-2-yl)piperidine-1-carboxamide] is > 1 µM; for `O=C(NC(=O)N1CCCC(c2nc3ccccc3[nH]2)C1)c1ccccc1` (stereo not drawn) [Compound 5, 3-(1H-benzo[d]imidazol-2-yl)-N-benzoylpiperidine-1-carboxamide] it is > 1 µM; for `Cc1cc(C)cc(NC(=O)N2CCCC(c3nc4ccccc4[nH]3)C2)c1` (stereo not drawn) [Compound 6, 3-(1H-benzo[d]imidazol-2-yl)-N-(3,5-dimethylphenyl)piperidine-1-carboxamide] it is > 1 µM.
Then `O=C(Nc1ccc(Cl)c(C(F)(F)F)c1)N1CCCC(c2nc3ccccc3[nH]2)C1` (stereo not drawn) [Compound 7, 3-(1H-benzo[d]imidazol-2-yl)-N-(4-chloro-3-(trifluoromethyl)phenyl)piperidine-1-carboxamide], with > 1 µM; and `O=C(Nc1ccccc1)N1CCCC(c2nc3ccccc3[nH]2)C1` (stereo not drawn) [Compound 8, 3-(1H-benzo[d]imidazol-2-yl)-N-phenylpiperidine-1-carboxamide], with > 1 µM.
In the case of `O=C(Nc1ccc2c(c1)CCC2)N1CCCC(c2nc3ccccc3[nH]2)C1` (stereo not drawn) [Compound 9, 3-(1H-benzo[d]imidazol-2-yl)-N-(2,3-dihydro-1H-inden-5-yl)piperidine-1-carboxamide], the IC50 is > 1 µM.
Then `O=C(NC1CCCCC1)N1CCCC(c2nc3ccccc3[nH]2)C1` (stereo not drawn) [Compound 10, 3-(1H-benzo[d]imidazol-2-yl)-N-cyclohexylpiperidine-1-carboxamide], with > 1 µM; and `O=C(Nc1ccc2c(c1)OCO2)N1CCCC(c2nc3ccccc3[nH]2)C1` (stereo not drawn) [Compound 11, N-(benzo[d][1,3]dioxol-5-yl)-3-(1H-benzo[d]imidazol-2-yl)piperidine-1-carboxamide], with > 1 µM; and `COC(=O)[C@H](Cc1ccccc1)NC(=O)N1CCCC(c2nc3ccccc3[nH]2)C1` (stereo partly drawn) [Compound 12, (2S)-methyl 2-(3-(1H-benzo[d]imidazol-2-yl)piperidine-1-carboxamido)-3-phenylpropanoate], with > 1 µM.
Then `COC(=O)[C@@H](Cc1ccccc1)NC(=O)N1CCCC(c2nc3ccccc3[nH]2)C1` (stereo partly drawn) [Compound 13, (2R)-methyl 2-(3-(1H-benzo[d]imidazol-2-yl)piperidine-1-carboxamido)-3-phenylpropanoate], with > 1 µM.
`CCOC(=O)CCNC(=O)N1CCCC(c2nc3ccccc3[nH]2)C1` (stereo not drawn) [Compound 14, ethyl 3-(3-(1H-benzo[d]imidazol-2-yl)piperidine-1-carboxamido)propanoate]: the IC50 was > 1 µM.
The figure for `O=C(Nc1ccc2c(c1)OCCO2)N1CCCC(c2nc3ccccc3[nH]2)C1` (stereo not drawn) [Compound 15, 3-(1H-benzo[d]imidazol-2-yl)-N-(2,3-dihydrobenzo[b][1,4]dioxin-6-yl)piperidine-1-carboxamide] is > 1 µM; for `O=C(Nc1ccccc1-c1ccccc1)N1CCCC(c2nc3ccccc3[nH]2)C1` (stereo not drawn) [Compound 16, 3-(1H-benzo[d]imidazol-2-yl)-N-(biphenyl-2-yl)piperidine-1-carboxamide] it is > 1 µM; for `CCCNC(=O)N1CCCC(c2nc3ccccc3[nH]2)C1` (stereo not drawn) [Compound 17, 3-(1H-benzo[d]imidazol-2-yl)-N-propylpiperidine-1-carboxamide] it is > 1 µM.
The figure for `S=C(Nc1cccc2nsnc12)N1CCCC(c2nc3ccccc3[nH]2)C1` (stereo not drawn) [Compound 18, N-(benzo[c][1,2,5]thiadiazol-4-yl)-3-(1H-benzo[d]imidazol-2-yl)piperidine-1-carboxthioamide] is > 1 µM.
Then `COC(=O)[C@H](CC(C)C)NC(=O)N1CCCC(c2nc3ccccc3[nH]2)C1` (stereo partly drawn) [Compound 19, (2S)-methyl 2-(3-(1H-benzo[d]imidazol-2-yl)piperidine-1-carboxamido)-4-methylpentanoate], with > 1 µM; and `O=C(Nc1cccnc1)N1CCCC(c2nc3ccccc3[nH]2)C1` (stereo not drawn) [Compound 20, 3-(1H-benzo[d]imidazol-2-yl)-N-(pyridin-3-yl)piperidine-1-carboxamide], with > 1 µM.
For `O=C(NCc1ccco1)N1CCCC(c2nc3ccccc3[nH]2)C1` (stereo not drawn) [Compound 21, 3-(1H-benzo[d]imidazol-2-yl)-N-(furan-2-ylmethyl)piperidine-1-carboxamide], the half-maximal inhibitory concentration (IC50) was > 1 µM.
The figure for `N[C@@H](CC(=O)N1CCCC(c2nc3ccccc3[nH]2)C1)Cc1ccc(Cl)cc1` (stereo partly drawn) [Compound 23, (3R)-1-(3-(1H-Benzo[d]imidazol-2-yl)piperidin-1-yl)-3-amino-4-(4-chlorophenyl)butan-1-one] is > 1 µM; for `COCCCn1c(C2CCCN(C(=O)C[C@H](N)Cc3ccc(Cl)cc3)C2)nc2ccccc21` (stereo partly drawn) [Compound 24, (3R)-3-amino-4-(4-chlorophenyl)-1-(3-(1-(3-methoxypropyl)-1H-benzo[d]imidazol-2-yl)piperidin-1-yl)butan-1-one] it is 0.1 to 1 µM.
Then `N[C@@H](CC(=O)N1CCCC(c2nc3ccccc3[nH]2)C1)c1ccc(C(F)(F)F)cc1` (stereo partly drawn) [Compound 25, (3S)-1-(3-(1H-benzo[d]imidazol-2-yl)piperidin-1-yl)-3-amino-3-(4-(trifluoromethyl)phenyl)propan-1-one], with > 1 µM; and `N[C@@H](CC(=O)N1CCCC(c2nc3ccccc3[nH]2)C1)c1ccccc1[N+](=O)[O-]` (stereo partly drawn) [Compound 26, (3S)-1-(3-(1H-benzo[d]imidazol-2-yl)piperidin-1-yl)-3-amino-3-(2-nitrophenyl)propan-1-one], with > 1 µM; and `N[C@@H](CC(=O)N1CCCC(c2nc3ccccc3[nH]2)C1)Cc1ccccc1Cl` (stereo partly drawn) [Compound 27, (3R)-1-(3-(1H-benzo[d]imidazol-2-yl)piperidin-1-yl)-3-amino-4-(2-chlorophenyl)butan-1-one], with > 1 µM.
In the case of `COc1cccc([C@@H](N)CC(=O)N2CCCC(c3nc4ccccc4[nH]3)C2)c1OC` (stereo partly drawn) [Compound 28, (3S)-1-(3-(1H-benzo[d]imidazol-2-yl)piperidin-1-yl)-3-amino-3-(2,3-dimethoxyphenyl)propan-1-one], the IC50 is > 1 µM.
The figure for `N[C@@H](CC(=O)N1CCCC(c2nc3ccccc3[nH]2)C1)Cc1csc2ccccc12` (stereo partly drawn) [Compound 29, (3R)-1-(3-(1H-benzo[d]imidazol-2-yl)piperidin-1-yl)-3-amino-4-(benzo[b]thiophen-3-yl)butan-1-one] is > 1 µM; for `N[C@@H](CC(=O)N1CCCC(c2nc3ccccc3[nH]2)C1)c1cccc(Cl)c1` (stereo partly drawn) [Compound 30, (3S)-1-(3-(1H-benzo[d]imidazol-2-yl)piperidin-1-yl)-3-amino-3-(3-chlorophenyl)propan-1-one] it is > 1 µM.
Then `COc1cc(OC)cc([C@@H](N)CC(=O)N2CCCC(c3nc4ccccc4[nH]3)C2)c1` (stereo partly drawn) [Compound 31, (3S)-1-(3-(1H-benzo[d]imidazol-2-yl)piperidin-1-yl)-3-amino-3-(3,5-dimethoxyphenyl)propan-1-one], with > 1 µM; and `N[C@H](CCc1ccccc1)CC(=O)N1CCCC(c2nc3ccccc3[nH]2)C1` (stereo partly drawn) [Compound 32, (3R)-1-(3-(1H-benzo[d]imidazol-2-yl)piperidin-1-yl)-3-amino-5-phenylpentan-1-one], with > 1 µM.
Then `N[C@@H](CC(=O)N1CCCC(c2nc3ccccc3[nH]2)C1)c1ccc([N+](=O)[O-])cc1` (stereo partly drawn) [Compound 33, (3S)-1-(3-(1H-benzo[d]imidazol-2-yl)piperidin-1-yl)-3-amino-3-(4-nitrophenyl)propan-1-one], with > 1 µM; and `N[C@@H](CC(=O)N1CCCC(c2nc3ccccc3[nH]2)C1)Cc1ccc(Br)cc1` (stereo partly drawn) [Compound 34, (3R)-1-(3-(1H-benzo[d]imidazol-2-yl)piperidin-1-yl)-3-amino-4-(4-bromophenyl)butan-1-one], with > 1 µM.
